We go through 25 molecules from patent publication US8314112B2 (Novartis AG, priority 2008, dated 2012).

Each structure is given as a SMILES string.

For this test, the target named is T1, human ALK5 (kinase domain, ALK5 T204D) (Homo sapiens, UniProt P36897, T204D).
T1 construct: The kinase domain of human ALK5 (amino acids 200-503); made in house; host or cells: insect cells (baculovirus)
T1 sequence (P36897 200-503 T204D): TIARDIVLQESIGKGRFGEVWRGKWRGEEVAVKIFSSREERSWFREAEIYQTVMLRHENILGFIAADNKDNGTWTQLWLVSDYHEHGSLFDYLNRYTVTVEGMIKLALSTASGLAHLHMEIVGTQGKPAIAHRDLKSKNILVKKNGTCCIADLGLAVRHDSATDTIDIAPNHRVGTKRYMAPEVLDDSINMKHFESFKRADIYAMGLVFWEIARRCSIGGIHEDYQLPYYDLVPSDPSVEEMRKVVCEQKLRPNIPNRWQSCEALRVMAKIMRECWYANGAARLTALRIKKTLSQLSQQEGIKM
Put plainly: ALK5 kinase assay ([33P] phosphate incorporation into casein). The following applies: casein substrate, 1 μM unlabelled ATP. Type of test: biochemical. On the procedure:
The kinase activity of ALK5 is assessed by measuring radiolabelled phosphate [33P] incorporation in to the generic substrate, casein. The kinase domain of human ALK5 (amino acids 200-503) is fused to an N-terminal histidine tag. The kinase activity of ALK5 is rendered constitutive via point mutation at amino acid 204 (threonine to aspartate modification, ALK5 T204D) and the kinase construct is engineered to be expressed from a baculovirus expression construct in insect cells. The purified, recombinantly-expressed histidine-tagged ALK5 T204D protein is dissolved at 5.4 mg/ml in 50 mM Tris-HCl pH 8.0, 150 mM NaCl, 5 mM DTT. ALK5 T204D is dissolved to 2.5 μg/ml in assay buffer (Assay buffer: 20 mM Tris-HCl pH 7.4, 10 mM MgCl2, 2 mM MnCl2) on the day of use.
Test compounds and reference compounds are dissolved in assay buffer without DTT containing 5% (v/v) DMSO. Stock solutions of test and reference compounds are diluted in assay buffer with DTT (1.25 mM) containing 4.5% (v/v) DMSO. 10 μl of test or reference compound are added to the appropriate wells of 96 well U-bottomed plate. Total enzyme activity is determined by measuring ALK5 T204D activity in the absence of ALK5 kinase inhibitor reference compounds. Non-specific binding (NSB) is determined by measuring the activity of ALK5 T204D in the presence of ALK5 kinase inhibitor reference compounds. 10 μl of dephosphorylated casein stock solution (dephosphorylated casein is dissolved in ddH2O at 20 mg/ml) is added per well (200 μg/well final assay concentration). 20 μl of ALK5 T204D (2.5 μg/ml solution) is added per well (50 ng/well final assay concentration). The plates are left to incubate at room temperature for 10 minutes.
10 μl of ATP mix is added to the well to initiate the reaction (0.66 nM [^33P]ATP/1 μM unlabelled ATP/well final assay concentration). The ATP mix is prepared as follows, unlabelled ATP (3 mM) is dissolved in ddH2O and pH adjusted to 7.4. The stock concentration of [^33P]ATP is 10 μCi/μl. The appropriate volume of [^33P]ATP is added to unlabelled ATP solution such that the final assay concentration per well is 0.1 μCi. Following addition of the ATP mix, the plates are incubated at room temperature for 50 minutes. The kinase reaction is terminated by the addition of 50 μL Stop Buffer (20 mM Tris-HCl pH 7.4, 10 mM EDTA).
75 μl/well from the reaction plate is transferred to a Multiscreen-IP plate (MultiScreen-IP plates are prepared by added 50 μL of 70% (v/v) ethanol per well and incubated for 5 minutes at room temperature. The ethanol is removed by aspiration via a MultiScreen HTS Vaccum Manifold unit (Millipore, Cat no: MSVMHT500). The plates are washed twice by adding 200 μl/well ddH2O). The MultiScreen-IP plate is incubated at room temperature for 30 minutes to allowing binding of casein to the plate. The MultiScreen-IP plates are washed three times by adding 200 μl/well 100 mM phosphoric acid solution and the gasket is carefully removed from the back of the MultiScreen-IP plate and the plate dried in the oven for 30 minutes. The MultiScreen-IP plate is backsealed, 50 μL of Microscint™20 is added, then the plates are topsealed and radiolabelled casein detected and quantified on a TopCount™ plate-reader using the ^33P scintillation protocol.
As to `Cc1cccc(-c2cc(-c3cncc(-c4ccc(CN5CC[C@H](N(C)C)C5)cc4)c3)c3cc[nH]c3n2)n1` [Example 110, Dimethyl-[(S)-1-(4-{5-[6-(6-methyl-pyridin-2-yl)-1H-pyrrolo[2,3-b]pyridin-4-yl]-pyridin-3-yl}-benzyl)-pyrrolidin-3-yl]-amine], inhibition was half-maximal at 20 nM (IC50).
For the molecule `Cc1cccc(-c2nc(-c3cncc(Br)c3)c3cc[nH]c3n2)n1` [Example 16, 4-(5-bromo-pyridin-3-yl)-2-(6-methyl-pyridin-2-yl)-7H-pyrrolo[2,3-d]pyrimidine], the IC50 (usually the concentration that inhibits the measured activity by half) amounted to 1810 nM.
As for `COc1cncc(-c2nc(-c3cccc(C)n3)nc3[nH]ccc23)c1` [Example 3, 4-(5-Methoxy-pyridin-3-yl)-2-(6-methyl-pyridin-2-yl)-7H-pyrrolo[2,3-d]pyrimidine], the figure is 130 nM; as for `Cc1cccc(-c2nc(-c3cncc(-c4ccc5c(c4)CCNC5)c3)c3cc[nH]c3n2)n1` [Example 115, 6-{5-[2-(6-Methyl-pyridin-2-yl)-7H-pyrrolo[2,3-d]pyrimidin-4-yl]-pyridin-3-yl}-1,2,3,4-tetrahydro-isoquinoline], 1150 nM.
As for `Cc1cccc(-c2cc(-c3cncc(-c4ccc(C(C)N)cc4)c3)c3cc[nH]c3n2)n1` (stereo not shown) [Example 112, 1-(4-{5-[6-(6-Methyl-pyridin-2-yl)-1H-pyrrolo[2,3-b]pyridin-4-yl]-pyridin-3-yl}-phenyl)-ethylamine], the figure is 7 nM; as for `Cc1cccc(-c2cc(-c3cncc(-c4ccc(CN5CCN(C(C)C)CC5)cc4)c3)c3cc[nH]c3n2)n1` [Example 137, 4-{5-[4-(4-Isopropyl-piperazin-1-ylmethyl)-phenyl]-pyridin-3-yl}-6-(6-methyl-pyridin-2-yl)-1H-pyrrolo[2,3-b]pyridine], 9 nM; as for `Cc1cccc(-c2nc(-c3cncc(N4CCC(O)CC4)c3)c3cc[nH]c3n2)n1` [Example 49, 5′-[2-(6-Methyl-pyridin-2-yl)-7H-pyrrolo[2,3-d]pyrimidin-4-yl]-3,4,5,6-tetrahydro-2H-[1,3′]bipyridinyl-4-ol], 1080 nM.
For `Cc1cccc(-c2nc(-c3cncc(CO)c3)c3cc[nH]c3n2)n1` [Example 79, {5-[2-(6-Methyl-pyridin-2-yl)-7H-pyrrolo[2,3-d]pyrimidin-4-yl]-pyridin-3-yl}-methanol], the IC50 was 1230 nM.
As for `Cc1cccc(-c2cc(-c3cncc(O)c3)c3cc[nH]c3n2)n1` [Example 107, 5-[6-(6-Methyl-pyridin-2-yl)-1H-pyrrolo[2,3-b]pyridin-4-yl]-pyridin-3-ol], the figure is 43 nM; as for `Cc1cccc(-c2nc(-c3cncc(-c4ccc(F)cc4)c3)c3cc[nH]c3n2)n1` [Example 7, 4-[5-(4-Fluoro-phenyl)-pyridin-3-yl]-2-(6-methyl-pyridin-2-yl)-7H-pyrrolo[2,3-d]pyrimidine], 45 nM.
The same measure for `Cc1cccc(-c2nc(-c3cncc(-c4cccnc4)c3)c3cc[nH]c3n2)n1` [Example 22, 5-[2-(6-Methyl-pyridin-2-yl)-7H-pyrrolo[2,3-d]pyrimidin-4-yl]-[3,3′]bipyridinyl]: 44 nM; for `Cc1cccc(-c2nc(-c3cncc(N)c3)c3cc[nH]c3n2)n1` [Example 95, 5-[2-(6-Methyl-pyridin-2-yl)-7H-pyrrolo[2,3-d]pyrimidin-4-yl]-pyridin-3-ylamine]: 259 nM.
The same measure for `CC(=O)NCCCC(=O)Nc1cncc(-c2nc(-c3cccc(C)n3)nc3[nH]ccc23)c1` [Example 52, 4-Acetylamino-N-{5-[2-(6-methyl-pyridin-2-yl)-7H-pyrrolo[2,3-d]pyrimidin-4-yl]-pyridin-3-yl}-butyramide]: 435 nM; for `Cc1cccc(-c2cc(-c3cncc(-c4ccc([C@@H](C)N)cc4)c3)c3cc[nH]c3n2)n1` [Example 128, (R)-1-(4-{5-[6-(6-Methyl-pyridin-2-yl)-1H-pyrrolo[2,3-b]pyridin-4-yl]-pyridin-3-yl}-phenyl)-ethylamine]: 13 nM.
Consider `Cc1cccc(-c2nc(-c3cncc(-c4ccc(C(=O)N5CCNCC5)cc4)c3)c3cc[nH]c3n2)n1` [Example 40, (4-{5-[2-(6-Methyl-pyridin-2-yl)-7H-pyrrolo[2,3-d]pyrimidin-4-yl]-pyridin-3-yl}-phenyl)-piperazin-1-yl-methanone], for which the IC50 was found to be 3 nM.
As for `Cc1cccc(-c2nc(-c3cncc(-c4ccccc4)c3)c3cc[nH]c3n2)n1` [Example 4, 2-(6-Methyl-pyridin-2-yl)-4-(5-phenyl-pyridin-3-yl)-7H-pyrrolo[2,3-d]pyrimidine], the figure is 34 nM; as for `Cc1cccc(-c2nc(-c3cncc(NC(=O)CCN(C)C)c3)c3cc[nH]c3n2)n1` [Example 31, 3-Dimethylamino-N-{5-[2-(6-methyl-pyridin-2-yl)-7H-pyrrolo[2,3-d]pyrimidin-4-yl]-pyridin-3-yl}-propionamide], 85 nM; as for `Cc1cccc(-c2cc(-c3cncc(C4=CCCC4)c3)c3cc[nH]c3n2)n1` [Example 89, 4-(5-Cyclopent-1-enyl-pyridin-3-yl)-6-(6-methyl-pyridin-2-yl)-1H-pyrrolo[2,3-b]pyridine], 79 nM.
`Cc1cccc(-c2nc(-c3cncc(C(=O)NCCCN4CCN(C)CC4)c3)c3cc[nH]c3n2)n1` [Example 25, N-[3-(4-Methyl-piperazin-1-yl)-propyl]-5-[2-(6-methyl-pyridin-2-yl)-7H-pyrrolo[2,3-d]pyrimidin-4-yl]-nicotinamide] had an IC50 of 223 nM.
The same measure for `Cc1cccc(-c2nc(-c3cncc(C#N)c3)c3cc[nH]c3n2)n1` [Example 98, 5-[2-(6-Methyl-pyridin-2-yl)-7H-pyrrolo[2,3-d]pyrimidin-4-yl]-nicotinonitrile]: 799 nM; for `Cc1cccc(-c2nc(-c3cncc(-c4cccc(N5CCCC5)c4)c3)c3cc[nH]c3n2)n1` [Example 18, 2-(6-Methyl-pyridin-2-yl)-4-[5-(3-pyrrolidin-1-yl-phenyl)-pyridin-3-yl]-7H-pyrrolo[2,3-d]pyrimidine]: 172 nM; for `Cc1cccc(-c2cc(-c3cncc(-c4ccc(CC(=O)O)cc4)c3)c3cc[nH]c3n2)n1` [Example 157, (4-{5-[6-(6-Methyl-pyridin-2-yl)-1H-pyrrolo[2,3-b]pyridin-4-yl]-pyridin-3-yl}-phenyl)-acetic acid]: 8 nM.
The same measure for `CNCc1ccc(-c2cncc(-c3cc(-c4cccc(C)n4)nc4[nH]ccc34)c2)cc1` [Example 73, Methyl-(4-{5-[6-(6-methyl-pyridin-2-yl)-1H-pyrrolo[2,3-b]pyridin-4-yl]-pyridin-3-yl}-benzyl)-amine]: 17 nM; for `Cc1cccc(-c2cc(-c3cncc(-c4ccc(CN)cc4)c3)c3cc[nH]c3n2)n1` [Example 84, 4-{5-[6-(6-Methyl-pyridin-2-yl)-1H-pyrrolo[2,3-b]pyridin-4-yl]-pyridin-3-yl}-benzylamine]: 36 nM.
Take `Cc1cccc(-c2nc(-c3cncc(-c4cccc(C5CCCN5)c4)c3)c3cc[nH]c3n2)n1` (stereo not shown) [Example 102, 2-(6-Methyl-pyridin-2-yl)-4-[5-(3-pyrrolidin-2-yl-phenyl)-pyridin-3-yl]-7H-pyrrolo[2,3-d]pyrimidine]: the IC50 was determined as 31 nM.
